Test: xn = mol fraction of the nth substance listed
Conditions: 303 K, 101 kPa, Liquid; for speed of sound: Linear variable-path acoustic interferometer; for mass density: Pycnometric method

CC(C)=O [acetone] + Cc1ccccc1
speed of sound [m/s]
Conditions	x1 = 0.135	x1 = 0.27	x1 = 0.331	x1 = 0.456	x1 = 0.51	x1 = 0.605	x1 = 0.745	x1 = 0.831	x1 = 0.937
Frequency=1 MHz	946	–	–	–	–	–	–	–	–
Frequency=3 MHz	1040	1032	1020	1000	981	965	943	–	1028
Frequency=5 MHz	1150	1130	1102	1080	1040	1010	1000	1150	1230

Conditions	mass density [kg/m3]
x1 = 0.135	850
x1 = 0.27	840
x1 = 0.331	836
x1 = 0.456	827
x1 = 0.51	823
x1 = 0.605	817
x1 = 0.745	807
x1 = 0.831	800
x1 = 0.937	793
x1 = 1	789

Cc1ccccc1 [toluene] + CC(C)=O
Conditions	mass density [kg/m3]
x2 = 0	860

Reference: the NIST ThermoML archive (doi:10.1007/s10765-013-1527-7)
